Broadly, the IC50 is the concentration that inhibits the measured activity by half. The low end stands for higher potency, the high end for lower potency.

For one test, the target named is Acetylcholinesterase (Electrophorus electricus, UniProt O42275). The test can be described thus: Inhibition of electric eel AchE using acetylthiocholine as substrate by Ellman's method. For orientation: Ellman's reagent forms a yellow product with free thiols.
The target of another test is Cholinesterase (Equus caballus, UniProt P81908). The test can be described thus: Inhibition of equine serum BuchE using butyrylthiocholine as substrate by Ellman's method.
Cholinesterase, sequence (P81908 whole entry): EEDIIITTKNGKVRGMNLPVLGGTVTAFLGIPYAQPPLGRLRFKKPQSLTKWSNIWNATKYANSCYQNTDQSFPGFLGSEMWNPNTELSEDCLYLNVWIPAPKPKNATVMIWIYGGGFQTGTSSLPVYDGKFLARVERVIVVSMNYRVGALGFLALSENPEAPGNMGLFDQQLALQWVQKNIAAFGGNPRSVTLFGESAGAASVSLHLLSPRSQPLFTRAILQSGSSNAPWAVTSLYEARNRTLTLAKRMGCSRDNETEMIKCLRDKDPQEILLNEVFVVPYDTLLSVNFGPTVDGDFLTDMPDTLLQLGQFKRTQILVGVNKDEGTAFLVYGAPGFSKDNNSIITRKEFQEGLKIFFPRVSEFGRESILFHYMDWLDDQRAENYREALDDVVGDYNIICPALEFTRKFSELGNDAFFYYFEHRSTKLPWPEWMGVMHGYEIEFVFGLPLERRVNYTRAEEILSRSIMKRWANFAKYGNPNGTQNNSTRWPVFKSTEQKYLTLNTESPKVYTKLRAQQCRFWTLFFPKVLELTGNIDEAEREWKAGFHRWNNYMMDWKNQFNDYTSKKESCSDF
In test [1] the target is 3',5'-cyclic-AMP phosphodiesterase 4D (Homo sapiens, UniProt Q08499).
3',5'-cyclic-AMP phosphodiesterase 4D, sequence (Q08499 whole entry): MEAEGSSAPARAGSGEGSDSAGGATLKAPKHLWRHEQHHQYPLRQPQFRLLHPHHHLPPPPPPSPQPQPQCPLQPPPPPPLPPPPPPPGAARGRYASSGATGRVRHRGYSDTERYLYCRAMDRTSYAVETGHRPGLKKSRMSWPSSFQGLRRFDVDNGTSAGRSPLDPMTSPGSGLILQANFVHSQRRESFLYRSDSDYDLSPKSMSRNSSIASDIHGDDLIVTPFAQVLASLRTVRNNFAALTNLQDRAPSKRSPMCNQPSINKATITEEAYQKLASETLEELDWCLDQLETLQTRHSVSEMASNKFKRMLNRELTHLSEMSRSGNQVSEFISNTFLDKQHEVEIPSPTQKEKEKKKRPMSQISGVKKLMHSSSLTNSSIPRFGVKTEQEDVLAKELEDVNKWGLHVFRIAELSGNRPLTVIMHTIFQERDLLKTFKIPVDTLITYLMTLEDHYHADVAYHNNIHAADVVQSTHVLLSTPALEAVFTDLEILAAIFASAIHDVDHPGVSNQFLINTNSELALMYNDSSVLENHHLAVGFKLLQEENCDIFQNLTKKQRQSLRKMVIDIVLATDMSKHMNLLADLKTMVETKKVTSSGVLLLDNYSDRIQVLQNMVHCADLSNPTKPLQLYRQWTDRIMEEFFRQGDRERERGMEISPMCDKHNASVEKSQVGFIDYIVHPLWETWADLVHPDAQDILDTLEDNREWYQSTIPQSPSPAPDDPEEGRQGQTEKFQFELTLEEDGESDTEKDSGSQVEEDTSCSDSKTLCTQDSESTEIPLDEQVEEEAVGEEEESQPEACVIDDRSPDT
Description: Inhibition of recombinant human PDE4D2 catalytic domain (86 to 413 residues) expressed in Escherichia coli BL21 codonplus cells using [3H]cAMP as substrate preincubated for 15 mins followed by substrate addition by liquid scintillation counting method

Acetylcholinesterase, sequence (O42275 whole entry): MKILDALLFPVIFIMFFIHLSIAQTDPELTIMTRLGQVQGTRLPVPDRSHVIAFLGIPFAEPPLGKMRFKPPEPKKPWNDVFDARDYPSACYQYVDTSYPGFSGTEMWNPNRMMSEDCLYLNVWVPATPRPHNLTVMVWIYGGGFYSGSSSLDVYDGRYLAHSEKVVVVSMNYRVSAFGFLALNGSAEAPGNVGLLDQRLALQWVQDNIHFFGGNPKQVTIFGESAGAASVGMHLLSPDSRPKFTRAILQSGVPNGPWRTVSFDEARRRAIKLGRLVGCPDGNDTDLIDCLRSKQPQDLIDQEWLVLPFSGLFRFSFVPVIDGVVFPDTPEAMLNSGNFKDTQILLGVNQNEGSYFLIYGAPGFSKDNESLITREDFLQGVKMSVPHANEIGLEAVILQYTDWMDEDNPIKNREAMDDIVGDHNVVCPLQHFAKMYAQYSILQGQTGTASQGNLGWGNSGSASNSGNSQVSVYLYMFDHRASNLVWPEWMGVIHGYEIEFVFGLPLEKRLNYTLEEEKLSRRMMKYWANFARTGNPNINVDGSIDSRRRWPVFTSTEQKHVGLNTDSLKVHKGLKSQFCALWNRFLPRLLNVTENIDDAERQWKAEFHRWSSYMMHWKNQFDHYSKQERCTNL

In the case of `CCn1ncc2c(NC3CCCCC3)c(C(=O)NCCNc3c4c(nc5cc(Cl)ccc35)CCCC4)cnc21`, the IC50 amounted to 412 nM on Acetylcholinesterase, 713 nM against Cholinesterase and 25 nM in test [1].

`CCn1ncc2c(NC3CCCCC3)c(C(=O)NCCCCCCCNc3c4c(nc5ccccc35)CCCC4)cnc21`: the results for the IC50 (against Acetylcholinesterase; against Cholinesterase; in test [1]) were 316 nM, 324 nM and 1070 nM, respectively.

Turning to `CCn1ncc2c(NC3CCCCC3)c(C(=O)NCCCCCCNc3c4c(nc5ccccc35)CCCC4)cnc21`, the IC50 on Acetylcholinesterase is 149 nM; against Cholinesterase, 332 nM; in test [1], 501 nM.

With `CCn1ncc2c(NC3CCCCC3)c(C(=O)NCCCCNc3c4c(nc5ccccc35)CCCC4)cnc21`, the IC50 at Acetylcholinesterase was found to be 333 nM; against Cholinesterase, 889 nM; in test [1], 108 nM.

For the compound `CCn1ncc2c(NC3CCCCC3)c(C(=O)NCCCCCCCCNc3c4c(nc5cc(Cl)ccc35)CCCC4)cnc21`, the IC50 at Acetylcholinesterase is 812 nM; on Cholinesterase, 314 nM; in test [1], 1080 nM.

For the compound `CCn1ncc2c(NC3CCCCC3)c(C(=O)NCCCCCCCCNc3c4c(nc5ccccc35)CCCC4)cnc21`, the IC50 against Acetylcholinesterase was 392 nM; at Cholinesterase, 320 nM; in test [1], 1310 nM.

Regarding `CCn1ncc2c(NC3CCCCC3)c(C(=O)NCCNc3c4c(nc5ccccc35)CCCC4)cnc21`, the results for the IC50 (on Acetylcholinesterase; on Cholinesterase; in test [1]) were 243 nM, 891 nM and 41 nM, respectively.

Turning to `CCn1ncc2c(NC3CCCCC3)c(C(=O)NCCCCCNc3c4c(nc5ccc(Cl)cc35)CCCC4)cnc21`, the values for the IC50 (on Acetylcholinesterase; against Cholinesterase; in test [1]) were 306 nM, 434 nM and 308 nM, respectively.

With `CCn1ncc2c(NC3CCCCC3)c(C(=O)NCCCCCNc3c4c(nc5ccccc35)CCCC4)cnc21`, the IC50 on Acetylcholinesterase came to 358 nM; at Cholinesterase, 264 nM; in test [1] it was 477 nM.

Consider `CCn1ncc2c(NC3CCCCC3)c(C(=O)NCCCCCCCNc3c4c(nc5ccc(Cl)cc35)CCCC4)cnc21`, for which the IC50 at Acetylcholinesterase was found to be 391 nM; on Cholinesterase, 245 nM; in test [1], 934 nM.

In the case of `CCn1ncc2c(NC3CCCCC3)c(C(=O)NCCCCCCNc3c4c(nc5cc(Cl)ccc35)CCCC4)cnc21`, the figures for the IC50 (at Acetylcholinesterase; against Cholinesterase; in test [1]) were 125 nM, 449 nM and 271 nM, respectively.

Consider `CCn1ncc2c(NC3CCCCC3)c(C(=O)NCCCCNc3c4c(nc5cc(Cl)ccc35)CCCC4)cnc21`, for which the IC50 at Acetylcholinesterase stood at 335 nM; at Cholinesterase it was 1280 nM; in test [1], 87 nM.

(Values after ChEMBL document CHEMBL4387778, “Dual functional cholinesterase and PDE4D inhibitors for the treatment of Alzheimer's disease: Design, synthesis and evaluation of tacrine-pyrazolo[3,4-b]pyridine hybrids” (Bioorg Med Chem Lett, 2019).)
